From patent publication US8871934B2, “Fluorene compound and pharmaceutical use thereof” (Japan Tobacco Inc., priority 2008, dated 2014) come the findings set out here.

In the test the target is human PDHK2 (hPDHK2) (Homo sapiens (Human), UniProt Q15119). Nature of the test: Inhibitory action of PDHK activity in vitro (kinase reaction, residual PDH activity measured). The format is biochemical. As for the experimental part: In the case of human PDHK2 (hPDHK2, Genbank Accession No. NM_002611), modified hPDHK2 cDNA wherein FLAG-Tag sequence is added to the N terminal by a polymerase linkage reaction was prepared based on hPDHK2 cDNA clone (pReceiver-M01/PDK2-GeneCopoeia), and cloned into a vector (pET17b-Novagen). The recombinant construct was transformed into Escherichia coli (DH5α-TOYOBO). The recombinant clones were identified, plasmid DNA was isolated and subjected to the DNA sequence analysis. One clone which had the expected nucleic acid sequence was selected for expression work.
During the assay, the hPDHK2 enzyme concentration was set to the minimal concentration at which PDH is inhibited the most.
0.05 U/mL PDH (porcine heart PDH complex, Sigma P7032) and 1.6 μg/mL hPDHK2 were mixed in a buffer (50 mmol/L 3-morpholinopropanesulfonic acid (pH 7.0), 20 mmol/L dipotassium hydrogen phosphate, 60 mmol/L potassium chloride, 2 mmol/L magnesium chloride, 0.4 mmol/L EDTA, and 0.2% Pluronic F-68, 2 mmol/L dithiothreitol), the mixture was incubated at 4° C. overnight to give PDH/hPDHK2 complex. The test compound was diluted with dimethyl sulfoxide (DMSO). PDH/hPDHK2 complex (20 μL), test compound (1.5 μL) and 3.53 μmol/L ATP (diluted with buffer, 8.5 μL) were added to a half area 96 well UV-transparent microplate (Corning 3679), and PDHK reaction was performed at room temperature for 45 min. Instead of the test compound, DMSO (1.5 μL) was added to a control well. DMSO (1.5 μL) was added instead of the test compound to a blank well for the measurement of the maximum rate of PDH reaction, and hPDHK2 was not added. Than, 10 μL of substrates (5 mmol/L sodium pyruvate, 5 mmol/L Coenzyme A, 12 mmol/L NAD, and 5 mmol/L thiamine pyrophosphate, diluted with buffer) was added. The mixture was incubated at room temperature for 90 min, and the residual PDH activity was measured. The absorbance at 340 nm before and after PDH reaction was measured on a microplate reader to detect NADH produced by the PDH reaction. The PDHK inhibitory rate (%) of the test compound was calculated from the formula [{(PDH activity of test compound—PDH activity of control)/PDH activity of blank—PDH activity of control)}×100]. The IC50 value was calculated from the concentrations of the test compound at two points enclosing 50% inhibition of the PDHK activity.

Setting [1] is: PDHK inhibitory activity, class symbol of IC50.
Setting [2] is: read-out: PDHK inhibitory activity IC50.
[3] abbreviates: PDHK inhibitory activity (class symbol).

As a reminder, the pIC50 is the negative decadic logarithm of the IC50, by convention in mol/L.

pIC50: −log10 of the molar value. Like-named read-outs stand apart in the source and are kept apart here.

Turning to `Cc1cc(C(=O)N2CC(O)C2)cc2c1-c1ccccc1C2(O)C(F)(F)F` (stereo not shown) [compound 350], the pIC50 under setting [1] is 6.00 to 7.00 and the pIC50 under setting [2] is 6.82.
Regarding `CC(C)COc1ccc2c(c1)C(O)(C(F)(F)F)c1ccccc1-2` (stereo not shown) [compound 264], the pIC50 runs as follows: under setting [1], < 6.00; under setting [2], 5.93.
Consider `CCOC(=O)CCCCOc1ccc2c(c1)C(O)(C(F)(F)F)c1ccccc1-2` (stereo not shown) [compound 283], for which the pIC50 was 6.00 to 7.00 under setting [1] and 6.24 under setting [2].
Consider `CC(=O)Nc1ccc2c(c1)-c1ccccc1C2(O)C(F)(F)F` (stereo not shown) [compound 28], for which the pIC50 is, setting by setting: under setting [1], < 6.00; under setting [2], 5.55.
For the molecule `COc1cc(-c2cnn(CCC(=O)O)c2)c2c(c1)C(O)(C(F)(F)F)c1ccccc1-2` (single isomer, unassigned) [compound 588], the pIC50 under setting [1] is > 7.00 and the pIC50 under setting [2] is 7.54.
For `NC(=O)COc1cnc2c(c1)C(O)(C(F)(F)F)c1ccccc1-2` (stereo not shown) [compound 434], the pIC50 was 6.00 to 7.00 under setting [1] and 6.25 under setting [2].
For `CC(=O)c1cc(-c2cnn(CCC(=O)O)c2)cc2c1-c1ccccc1C2(O)C(F)(F)F` (stereo not shown) [compound 594], the pIC50 under setting [1] is > 7.00 and the pIC50 under setting [2] is 7.32.
Regarding `COC(=O)c1cc(-c2cnn(C)c2)c2c(c1)C(O)(C(F)(F)F)c1ccccc1-2` (stereo not shown) [compound 343], the negative-log IC50 (pIC50) under setting [1] is > 7.00 and the pIC50 under setting [2] was 7.28.
As to `OCCn1cc(-c2cc(CO)c3c(c2)C(O)(C(F)(F)F)c2ccccc2-3)cn1` (stereo not shown) [compound 615], the pIC50 runs as follows: under setting [3], 6.00 to 7.00; under setting [2], 6.98.
As for `O=C1OCCCN1CCOc1ccc2c(c1)C(O)(C(F)(F)F)c1ccccc1-2` (stereo not shown) [compound 470], the pIC50 under setting [1] was 6.00 to 7.00 and the pIC50 under setting [2] is 6.77.
`COc1ccc(-c2ccc3c(c2)C(O)(C(F)(F)F)c2ccccc2-3)cc1` (stereo not shown) [compound 172]: the pIC50 under setting [1] is 6.00 to 7.00 and the pIC50 under setting [2] is 6.11.
On to `CN(C)C(=O)c1cc(-c2cncnc2)c2c(c1)C(O)(C(F)(F)F)c1ccccc1-2` (stereo not shown) [compound 368], for which the pIC50 by setting is: under setting [1], 6.00 to 7.00; under setting [2], 6.74.
`O[C@@H]1CCN(CCOc2ccc3c(c2)C(O)(C(F)(F)F)c2ccccc2-3)C1` (stereo partly shown) [compound 390]: the pIC50 reads like this: under setting [1], 6.00 to 7.00; under setting [2], 6.02.
For `Cn1cc(-c2cc(C(=O)N3CC(O)C3)cc3c2-c2ccccc2C3(O)C(F)(F)F)cn1` (stereo not shown) [compound 373] the same measures were > 7.00 and 7.31.
Turning to `CCC(=O)c1cccc2c1-c1ccccc1C2(O)C(F)(F)F` (stereo not shown) [compound 81], the pIC50 under setting [1] was < 6.00 and the pIC50 under setting [2] is 5.56.
Turning to `CC(=O)c1cc(-c2cnn(CCO)c2)cc2c1-c1ccccc1C2(O)C(F)(F)F` (stereo not shown) [compound 585], the pIC50 is > 7.00 under setting [1] and 7.59 under setting [2].
As to `Cn1cc(-c2cc(OCCC(=O)O)cc3c2-c2ccccc2C3(O)C(F)(F)F)cn1` (stereo not shown) [compound 454], the pIC50 runs as follows: under setting [1], > 7.00; under setting [2], 7.19.
For `CN(C)C(=O)c1cccc2c1-c1ccccc1C2(O)C(F)(F)F` (stereo not shown) [compound 35] the same measures were < 6.00 and < 4.00.
As for `OC1(C(F)(F)F)c2ccccc2-c2c(-c3cnco3)cccc21` (stereo not shown) [compound 92], the pIC50 is 6.00 to 7.00 under setting [1] and 6.39 under setting [2].
For `Cn1cc(-c2cc(OCCCCO)cc3c2-c2ccccc2C3(O)C(F)(F)F)cn1` (stereo not shown) [compound 426] the same measures were > 7.00 and 7.62.
With `OC1(C(F)(F)F)c2ccccc2-c2c(-c3cccnc3)cc(Cl)cc21` (stereo not shown) [compound 243], the pIC50 under setting [1] is > 7.00 and the pIC50 under setting [2] was 7.12.
Turning to `CCN(CC)C(=O)c1ccc2c(c1)C(O)(C(F)(F)F)c1ccccc1-2` (stereo not shown) [compound 54], the pIC50 under setting [1] was < 6.00 and the pIC50 under setting [2] was 4.66.
For `OC1(C(F)(F)F)c2ccccc2-c2c(-c3cncnc3)cccc21` (stereo not shown) [compound 300], the pIC50 under setting [1] is 6.00 to 7.00 and the pIC50 under setting [2] was 6.94.
In the case of `CCOC(=O)c1ccc(-c2ccc3c(c2)C(O)(C(F)(F)F)c2ccccc2-3)cc1` (stereo not shown) [compound 175], the pIC50 under setting [1] is 6.00 to 7.00 and the pIC50 under setting [2] is 6.29.
`CC(C)(C)n1cc(-c2cc(C(N)=O)c3c(c2)C(O)(C(F)(F)F)c2ccccc2-3)cn1` (stereo not shown) [compound 639]: the pIC50 is > 7.00 under setting [3] and 7.20 under setting [2].
`COc1cc(C(N)=O)c2c(c1)C(O)(C(F)(F)F)c1ccccc1-2` (stereo not shown) [compound 626]: the pIC50 is, setting by setting: under setting [3], 6.00 to 7.00; under setting [2], 6.17.
`Cc1cc(-c2cnn(CCCC(=O)O)c2)c2c(c1)C(O)(C(F)(F)F)c1ccccc1-2` (single isomer, unassigned; (+)) [compound 539, (+)-4-[4-(9-hydroxy-2-methyl-9-trifluoromethyl-9H-fluoren-4-yl)-pyrazol-1-yl]-butyric acid]: the pIC50 is > 7.00 under setting [1] and 7.57 under setting [2].
For `Cn1cc(-c2cc(OCC(N)=O)cc3c2-c2ccccc2C3(O)C(F)(F)F)cn1` (single isomer, unassigned) [compound 467] the same measures were > 7.00 and 7.74.
As for `OCc1ccc(-c2ccc3c(c2)C(O)(C(F)(F)F)c2ccccc2-3)cc1` (stereo not shown) [compound 194], the pIC50 by setting is: under setting [1], 6.00 to 7.00; under setting [2], 6.43.
For `CC(C)(C)n1cc(-c2cccc3c2-c2ccccc2C3(O)C(F)(F)F)cn1` (stereo not shown) [compound 523] the same measures were > 7.00 and 7.32.
For the molecule `CNC(=O)Cn1cc(-c2cc(Cl)cc3c2-c2ccccc2C3(O)C(F)(F)F)cn1` (stereo not shown) [compound 513], the pIC50 is, setting by setting: under setting [1], > 7.00; under setting [2], 7.49.
For `Cn1nnc(-c2cccc3c2-c2ccccc2C3(O)C(F)(F)F)n1` (stereo not shown) [compound 250], the pIC50 under setting [1] was < 6.00 and the pIC50 under setting [2] was 5.79.
In the case of `OC1(C(F)(F)F)c2ccccc2-c2ncccc21` (stereo not shown) [compound 1], the pIC50 runs as follows: under setting [1], < 6.00; under setting [2], 5.66.
For `Cn1cc(-c2cc(OCC(=O)N3CCC3)cc3c2-c2ccccc2C3(O)C(F)(F)F)cn1` (stereo not shown) [compound 441], the pIC50 reads like this: under setting [1], > 7.00; under setting [2], 7.44.
For the molecule `OC1(C(F)(F)F)c2ccccc2-c2cc(F)ccc21` (stereo not shown) [compound 12], the pIC50 by setting is: under setting [1], < 6.00; under setting [2], 5.26.
For the molecule `Cc1cc(-c2cnn(CCCc3nn[nH]n3)c2)c2c(c1)C(O)(C(F)(F)F)c1ccccc1-2` (single isomer, unassigned) [compound 691], the pIC50 is, setting by setting: under setting [3], > 7.00; under setting [2], 7.52.
As for `Cc1cccc(-c2ccc3c(c2)C(O)(C(F)(F)F)c2ccccc2-3)c1` (stereo not shown) [compound 137], the pIC50 runs as follows: under setting [1], < 6.00; under setting [2], 6.00.
For `Cc1cc(Cl)c2c(c1)C(O)(C(F)(F)F)c1ccccc1-2` (stereo not shown) [compound 519] the same measures were 6.00 to 7.00 and 6.38.
Turning to `O=C(c1ccc2c(c1)C(O)(C(F)(F)F)c1ccccc1-2)C1CCCC1` (stereo not shown) [compound 109], the pIC50 runs as follows: under setting [1], < 6.00; under setting [2], 5.88.
Consider `Cn1cc(-c2cc(OCC(=O)N3CC(CO)C3)cc3c2-c2ccccc2C3(O)C(F)(F)F)cn1` (stereo not shown) [compound 439], for which the pIC50 reads like this: under setting [1], > 7.00; under setting [2], 7.47.
For `OC1(C(F)(F)F)c2ccccc2-c2ccc(OC3CCC3)cc21` (stereo not shown) [compound 128] the same measures were < 6.00 and 5.62.
Regarding `CC(O)c1cc(-c2cnn(C)c2)cc2c1-c1ccccc1C2(O)C(F)(F)F` (stereo not shown) [compound 598], the pIC50 is 6.00 to 7.00 under setting [1] and 6.19 under setting [2].
Regarding `CC(O)c1cc(-c2cnn(CCO)c2)cc2c1-c1ccccc1C2(O)C(F)(F)F` (stereo not shown) [compound 586], the pIC50 reads like this: under setting [1], 6.00 to 7.00; under setting [2], 6.29.
With `OCCn1cc(-c2cc(F)cc3c2-c2ccccc2[C@]3(O)C(F)(F)F)cn1` (stereo in doubt) [compound 531], the pIC50 was 7.70 (PDHK inhibitory activity IC50 (μmol/L)) and > 7.00 under setting [1].
In the case of `OC1(C(F)(F)F)c2ccccc2-c2c(-c3ccsc3)cccc21` (stereo not shown) [compound 309], the pIC50 runs as follows: under setting [1], < 6.00; under setting [2], < 5.00.
For `CC(=O)c1cc(-c2cnn(C)c2)cc2c1-c1ccccc1C2(O)C(F)(F)F` (stereo not shown) [compound 596] the same measures were > 7.00 and 7.39.
For `O=C1OCCN1CCOc1ccc2c(c1)C(O)(C(F)(F)F)c1ccccc1-2` (stereo not shown) [compound 459] the same measures were 6.00 to 7.00 and 6.73.
